As a reminder, the Ki is the dissociation constant of the complex between target and ligand, obtained from inhibition or displacement. As usually defined, the IC50 is the midpoint of a concentration-inhibition curve. Read a low IC50 as higher potency.

22 compounds from ChEMBL document CHEMBL1125598, “HIV protease: a novel chemotherapeutic target for AIDS” (J Med Chem, 1991) can be followed below.

Values joined by “and” are separate entries in the source; they are usually repeats but may differ in a detail not shown here. Equal values may be shown once. Peptide text beside a SMILES is read from it. Bounds are passed on as bounds.

The target in series [1] is T1, Human immunodeficiency virus type 1 protease (Human immunodeficiency virus 1, UniProt Q72874). The series is described as follows: Binding affinity for HIV-1 protease.
Series [2] concerns Human immunodeficiency virus 1. In words: Concentration for prevention of spread of HIV infection; range 25-100 uM. In kind it is functional, organism-based.
For series [3], the target named is T1, Human immunodeficiency virus type 1 protease. In words: The compound was tested for its affinity against HIV-1 protease.
The test system of series [4] is C8166. The series is described as follows: Antiviral activity in HIV-1RF infected C8166 cells. Particulars: Homo sapiens. In kind it is functional, cell-based.
The test system of series [5] is JM1. In words: Antiviral activity in HIV-1GB8 infected JM cells. The note with it: Homo sapiens. In kind it is functional, cell-based.
Series [6] can be described thus: Toxicity against HIV-1 mB in H9 cells; Range 10 to >100 uM. In kind it is cell-based. Particulars: human, read-out: TC50 (the source's name).
The nature of series [7]: Toxicity against HIV-1 mB in MT-4 cells; Range 10 to >100 uM. In kind it is cell-based, MT4. The note with it: human, read-out: TC50 (the source's name).
The test system of series [8] is MT4. In words: Inhibitory activity against HIV-1 mB in MT-4 cells; Range 20-150 nM. The note with it: Homo sapiens. In kind it is functional, cell-based.
For series [9], the system named is H9. The series is described as follows: Inhibitory activity against HIV-1 mB in H9 cells; Range 20-150 nM. In kind it is functional, cell-based. The note with it: Homo sapiens.
Series [10] has as its system H9. In words: Inhibitory activity against HIV-1IIIb in H-9 cells using immunofluorescence. In kind it is functional, Homo sapiens.

Take `COC(=O)[C@@H](NC(=O)[C@@H](NC(=O)CC[C@@H](O)[C@@H](Cc1ccccc1)NC(=O)[C@H](C)NC(=O)[C@H](C)N)C(C)C)C(C)C` (HELM PEPTIDE1{A.A.[O=C(CC[C@@H](O)[C@@H](Cc1ccccc1)N[*:1])[*:2]].V.V.[CO[*:1]]}$$$$V2.0): in series [1], the inhibition constant Ki worked out at 18 nM. The Concentration in series [2] worked out at 100 µM.

Turning to `COC(=O)[C@@H](NC(=O)[C@@H](NC(=O)CCP(=O)(O)[C@@H](Cc1ccccc1)NC(=O)[C@H](C)NC(=O)[C@H](C)NC(=O)[C@@H](N)CO)C(C)C)C(C)C` (HELM PEPTIDE1{S.A.A.[O=C(CCP(=O)(O)[C@@H](Cc1ccccc1)N[*:1])[*:2]].V.V.[CO[*:1]]}$$$$V2.0), the inhibition constant (Ki) in [1] was 4400 nM.

`COC(=O)[C@@H](NC(=O)[C@@H](NC(=O)C[C@H](O)[C@H](Cc1ccccc1)NC(=O)[C@H](C)NC(=O)[C@H](C)NC(=O)[C@@H](N)CO)C(C)C)C(C)C` (HELM PEPTIDE1{S.A.A.[O=C(C[C@H](O)[C@H](Cc1ccccc1)N[*:1])[*:2]].V.V.[CO[*:1]]}$$$$V2.0) had an inhibition constant (Ki) in [1] of 1200 nM.

As for `CC(C)[C@H](NC(=O)[C@@H](NC(=O)C1CCCN1CP(=O)(O)[C@@H](Cc1ccccc1)NC(=O)c1ccccc1)C(C)C)C(N)=O` (stereo partly drawn), in series [1], the affinity corresponds to a Ki of 450 nM.

In [3], `CC(C)[C@H](NC(=O)OCc1ccccc1)C(=O)N[C@@H](Cc1ccccc1)C(O)[C@H](Cc1ccccc1)NC(=O)[C@@H](NC(=O)OCc1ccccc1)C(C)C` had a concentration for half-maximal inhibition (IC50) of 3 nM.

`CC(C)[C@H](NC(=O)[C@@H](NC(=O)C(Cc1ccccc1)CP(=O)(O)[C@@H](Cc1ccccc1)NC(=O)[C@@H](NC(=O)[C@@H](NC(=O)OC(C)(C)C)C(C)C)C(C)C)C(C)C)C(N)=O` (stereo partly drawn) (HELM PEPTIDE1{[CC(C)(C)OC(=O)[*:2]].V.V.[O=C(C(Cc1ccccc1)CP(=O)(O)[C@@H](Cc1ccccc1)N[*:1])[*:2]].V.V.[am]}$$$$V2.0) registered a Ki in [1] of 0.04 nM.

As for `CC(C)(C)NC(=O)[C@H]1C[C@@H]2CCCC[C@@H]2CN1C[C@@H](O)[C@H](Cc1ccccc1)NC(=O)[C@H](CC(N)=O)NC(=O)c1ccc2ccccc2n1`, the values for the concentration for half-maximal inhibition (IC50) in series [4] and in [5] were 2 nM and 2.5 nM, respectively.

In series [1], `CC(=O)N[C@@H](CO)C(=O)N[C@@H](CCC(N)=O)C(=O)N[C@@H](CC(N)=O)C(=O)N[C@@H](Cc1ccccc1)[C@@H](O)CC(=O)N[C@H](C(=O)N[C@H](C(N)=O)C(C)C)C(C)C` (HELM PEPTIDE1{[ac].S.Q.N.[O=C(C[C@H](O)[C@H](Cc1ccccc1)N[*:1])[*:2]].V.V.[am]}$$$$V2.0) displayed a Ki of 39000 nM. This counts as double-digit micromolar.

Consider `CCCC[C@H](CN[C@H](CCCC)C(=O)N[C@@H](CCC(N)=O)C(=O)N[C@@H](CCCNC(=N)N)C(N)=O)NC(=O)[C@@H](NC(=O)[C@@H](NC(C)=O)[C@@H](C)O)[C@@H](C)CC`, for which the IC50 in series [3] is 780 nM.

On to `CC(C)(C)OC(=O)C1CCCN1C[C@@H](O)[C@H](Cc1ccccc1)NC(=O)[C@H](CC(N)=O)NC(=O)OCc1ccccc1` (stereo partly drawn), for which half-maximal inhibition in series [3] (IC50) was put at 140 nM.

For `CC(=O)N[C@@H](Cc1ccccc1)C(O)[C@H](Cc1ccccc1)NC(C)=O`, the half-inhibitory concentration (IC50) in [3] is > 10000 nM.

For the compound `CC[C@H](C)[C@H](NC(=O)[C@@H](C[C@H](O)[C@H](CC(C)C)NC(=O)[C@H](Cc1c[nH]cn1)NC(=O)[C@H](Cc1ccccc1)NC(=O)[C@@H]1CCCN1C(=O)[C@H](Cc1c[nH]cn1)NC(=O)OC(C)(C)C)C(C)C)C(=O)N[C@@H](Cc1c[nH]cn1)C(=O)O` (HELM PEPTIDE1{[CC(C)(C)OC(=O)[*:2]].H.P.F.H.[CC(C)C[C@H](N[*:1])[C@@H](O)C[C@H](C(=O)[*:2])C(C)C].I.H}$$$$V2.0), affinity in series [1] was put at a Ki of 5 nM.

Consider `CC(C)[C@H](NC(=O)OCc1ccccc1)C(=O)N[C@@H](Cc1ccccc1)[C@H](O)[C@H](O)[C@H](Cc1ccccc1)NC(=O)[C@@H](NC(=O)OCc1ccccc1)C(C)C`, for which the CC50 in series [6] and in series [7] was 10000 nM throughout. In addition, the IC50 in series [8] is 20 nM; in [9], 20 nM; in [3], 0.2 nM and < 0.4 nM.

`CC(C)[C@H](NC(=O)[C@@H](NC(=O)[C@@H]1CCCN1C[C@H](Cc1ccccc1)NC(=O)[C@H](C)NC(=O)[C@H](C)NC(=O)[C@@H](N)CO)C(C)C)C(N)=O` (HELM PEPTIDE1{S.A.A.[O=C([C@@H]1CCCN1C[C@H](Cc1ccccc1)N[*:1])[*:2]].V.V.[am]}$$$$V2.0) registered an IC50 in [3] of 19000 nM.

`CC[C@H](C)[C@H](NC(=O)[C@@H](C[C@H](O)[C@H](CC1CCCCC1)NC(=O)[C@H](C)NC(C)(C)C)C(C)C)C(=O)NCc1ccccn1` had an inhibition constant (Ki) in series [1] of 70 nM.

As to `CC[C@H](C)[C@H](NC(=O)[C@H](C(C)C)[C@@H](O)[C@H](O)[C@H](CC1CCCCC1)NC(=O)[C@H](Cc1c[nH]cn1)NC(=O)COc1cccc2ccccc12)C(=O)NCc1ccccn1`, the Ki in series [1] is < 1 nM.

In series [10], `CC(C)(C)OC(=O)N[C@@H](Cc1ccccc1)[C@@H](O)C[C@@H](Cc1ccccc1)C(=O)N[C@H]1c2ccccc2C[C@H]1O` displayed an IC100 of 200 nM.

As to `CC(C)[C@H](NC(=O)[C@@H](NC(=O)C(Cc1ccccc1)CP(=O)(O)[C@@H](Cc1ccccc1)NC(=O)c1ccccc1)C(C)C)C(N)=O` (stereo partly drawn), in series [1], affinity was put at a Ki of 0.6 nM.

In turn, `CC[C@H](C)[C@H](NC(=O)C1CCCN1C[C@H](C)[C@H](Cc1ccccc1)NC(=O)[C@H](CC(N)=O)NC(=O)[C@H](CC(C)C)NC(=O)[C@H](CO)NC(C)=O)C(=O)N[C@H](C(=O)OC)C(C)C` (stereo partly drawn) (HELM PEPTIDE1{[ac].S.L.N.[C[C@@H](CN1CCCC1C(=O)[*:2])[C@H](Cc1ccccc1)N[*:1]].I.V.[CO[*:1]]}$$$$V2.0) showed an inhibitory constant (Ki) in [1] of 0.66 nM.

Compound `CC(C)C[C@H](NC(=O)[C@H](Cc1ccccc1)CP(=O)(O)[C@H](Cc1ccccc1)NC(=O)OC(C)(C)C)C(=O)N[C@@H](Cc1ccccc1)C(N)=O` displayed an IC50 in series [3] of 9 nM. That is a single-digit nanomolar value.

For `CC[C@H](C)[C@H](NC(=O)[C@@H]1CCCN1C[C@H](Cc1ccccc1)NC(=O)[C@H](CC(N)=O)NC(=O)[C@H](CCC(N)=O)NC(=O)[C@H](CO)NC(=O)[C@@H](N)C(C)C)C(=O)N[C@H](C(=O)O)C(C)C` (HELM PEPTIDE1{V.S.Q.N.[O=C([C@@H]1CCCN1C[C@H](Cc1ccccc1)N[*:1])[*:2]].I.V}$$$$V2.0), in [3], half-maximal inhibition (IC50) was put at 3.5 nM.

As to `CC(C)(C)NC(=O)C1CCCCN1C[C@@H](O)[C@H](Cc1ccccc1)NC(=O)[C@H](CC(N)=O)NC(=O)c1ccc2ccccc2n1` (stereo partly drawn), in series [3], inhibition was half-maximal at 2 nM (IC50). Compared with the last compound, the IC50 is about 1.8-fold lower.
